Test [1] relates to L5 SNL-induced tactile allodynia. Put plainly: Neuropathic pain assay: L5 SNL-induced tactile allodynia (von Frey). Type of test: in vivo, rat. Conditions: L5 SNL rats, n = 7-8/group. How it is done: Male Sprague-Dawley rats (120-250 g, Harlan Laboratories, Columbus, Ohio) were housed in pairs and allowed free access to food and water throughout the study. Room temperature and humidity were maintained at 21° C. and 70%, respectively. Nerve injury was produced with tight ligation of the left L5 spinal nerve (Kim, S. H., and J. M. Chung, Pain, 50, 355-363 (1992); LaBuda, C. J. and Fuchs, P. N., Exp Neurol., 163, 490-494(2000); LaBuda, C. J. and Fuchs, P. N., Neurosci Letters, 290, 137-140(2000); LaBuda, C. J., Donahue, R., Fuchs, P. N., Pain, 94, 59-63, (2001)). Briefly, animals were placed in the prone position to access the left L4-L6 spinal nerves. Under magnification, approximately one third of the L6 transverse process was removed. The L5 spinal nerve was identified and carefully dissected free from the adjacent L4 spinal nerve and then tightly ligated using 6-0 silk suture. The wound was treated with an antiseptic solution, the muscle layer was sutured, and the wound was closed with wound clips. Sham-operated surgical controls were prepared in the same manner, but the L5 spinal nerve was not […]. All housing conditions and experimental procedures were performed in accordance with the ethical guidelines of the IASP and the Adolor Corporation Animal Care and Use Committee.
Seven to ten animals per group were used for all behavioral assays. After a 7-10 day post-surgical recovery, animals were tested for baseline sensitivity to tactile stimulation of both hindpaws. Allodynic animals were defined as animals having a threshold of less than 7.5 grams of pressure applied to the injured hindpaw. Tactile sensitivity was evaluated using von Frey monofilaments before and after treatment. […] Thirty minutes after treatment, tactile sensitivity was evaluated. Five to seven days later, animals were tested using a different compound. Each animal was tested three times with different compounds. All behavioral testing was performed between 9:00 AM and 5:00 PM in a well-illuminated room with white background noise.
Animals were placed in a Plexiglas chamber (20 cm×10.5 cm×40.5 cm) and habituated for 15 minutes. The chamber was positioned on top of a mesh screen so that von Frey monofilaments could be presented to the plantar surfaces of both hindpaws. Measurements of tactile sensitivity for each hindpaw were obtained using the up/down method (Dixon, W. J., Annu Rev Pharmacol Toxicol 20, 441-462, 1980) with seven von Frey monofilaments (0.04, 0.07, 0.16, 0.4, 1, 6, and 15 grams). Each trial started with a von Frey force of 0.4 g delivered to the right hindpaw and then the left hindpaw for approximately 1-2 sec each. If there was no withdrawal response, the next higher force was delivered. If there was a response, the next lower force was delivered. This procedure was performed until no response was made at the highest force (15 grams) or until four stimuli were administered following the initial response. The 50% paw withdrawal threshold for each paw was calculated using the following formula: [Xth]log=[vFr]log+ky where [vFr] is the force of the last von Frey filament used, k=0.2249 which is the average interval (in log units) between the von Frey monofilaments, and y is a value that depends upon the pattern of withdrawal responses (Dixon, Id.). […] Testing for tactile sensitivity was performed twice and the mean 50% withdrawal value assigned as the tactile sensitivity for the right and left paws for each animal.
Tactile sensitivity for both hindpaws before and after treatments were analyzed using one-way analysis of variance (ANOVA) followed by post-hoc comparisons (protected t-test) for group differences. An alpha level of 0.05 was used for all analyses.

Test [2] deals with T1, CB2 receptor (Homo sapiens, UniProt P34972).
T1 construct: expressed in transfected cells; membranes
T1 sequence (P34972 whole entry): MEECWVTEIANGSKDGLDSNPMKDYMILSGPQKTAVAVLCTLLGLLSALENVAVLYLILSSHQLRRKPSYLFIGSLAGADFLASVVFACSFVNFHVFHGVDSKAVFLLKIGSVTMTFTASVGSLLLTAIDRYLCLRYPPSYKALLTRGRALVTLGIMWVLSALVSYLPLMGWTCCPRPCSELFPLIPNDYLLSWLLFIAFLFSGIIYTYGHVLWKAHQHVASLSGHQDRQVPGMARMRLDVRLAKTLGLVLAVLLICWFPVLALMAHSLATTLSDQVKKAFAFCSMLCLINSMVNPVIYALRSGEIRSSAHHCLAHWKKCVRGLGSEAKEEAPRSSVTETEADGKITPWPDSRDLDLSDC
Put plainly: hCB2-mediated [35S]GTPγS binding. Type of test: biochemical. Conditions: for EC50: agonist, read-out: in vitro CB2 receptor agonist potency EC50. How it is done:
(§1) EC50 values in functional assays were also derived from automated nonlinear regression analysis of sigmoidal titration curves using the three-parameter modification of the four-parameter equation.
(§2) Chinese hamster ovary cells (CHO-K1), stably transfected with either hCB1 or hCB2, were washed two times with cold PBS, scraped from 500 cm^2 tissue culture plates, and pelleted by centrifugation at 1000×g for 10 min. The supernatant was discarded and the pellet was resuspended in Tris assay buffer (50 mM Tris HCl, pH 7.8, containing 1.0 mM EGTA, 5.0 mM MgCl2, […], and 0.5 mg/mL aprotinin), homogenized with a Polytron homogenizer (Brinkmann) at a setting of 1 for 20 sec and centrifuged at 38,000×g for 20 min at 4° C. The pellet was resuspended in Tris assay buffer and aliquots of 1 mg protein/mL were stored at −80° C. for further use.
hCB2-Mediated [^35S]GTPγS binding was measured in the same way except the assay mixture contained […] and the incubation time was 6 hours. [^35S]GTPγS binding in rat cerebellar homogenate was determined in a mixture containing 40-60 pM [^35S]GTPγS, homogenate assay buffer (50 mM Tris-HCl, 3 mM MgCl2, 0.2 mM EGTA), 100 mM NaCl, 10 mM MgCl2, […], 20 μg homogenate protein/well and agonist in a total volume of 250 μL in 96 well Basic Flashplates (Perkin Elmer). After incubation at 30° C. for 2 hours, the plates were centrifuged at 800×g at 4° C. for 5 min and the radioactivity bound to the membrane was determined by scintillation spectrometry using the Topcount (Perkin Elmer).
In general terms: GTPγS resists hydrolysis and so accumulates on activated G proteins.

Test [3] has as its target T2, CB1 receptor (Homo sapiens, UniProt P21554).
T2 construct: expressed in transfected cells; membranes
Put plainly: hCB1 receptor binding, [3H]CP55940 displacement. Conditions: human cloned CB1 receptor. How it is done: (§3) Ki values in receptor binding experiments were determined by Cheng-Prusoff correction of IC50 values derived from automated nonlinear regression analysis of sigmoidal titration curves using a three-parameter modification (slope set to 1.0) of the four-parameter equation described in Cheng, Y.-C. and W. H. Prusoff, Biochem. Pharmacol. 22:3099-3108 (1973) and DeLean et al., Am. J. Physiol. 235:E97-E102 (1978).
as §2
(§4) Binding assays were performed by incubating 0.2-0.6 nM (34,000-100,000 dpm) [^3H]CP55940 with membranes prepared from cells expressing cloned human CB1 or CB2 receptors in buffer A (50 mM Tris HCl, pH 7.0, 5.0 mM MgCl2, 1.0 mM EGTA and 1.0 mg/mL fatty acid free bovine serum albumin). After incubation for 60 min at room temperature for the hCB2 binding assay or 120 min at 30° C. for the hCB1 assay, the assays were filtered through GF/C filters that had been pre-soaked overnight in 0.5% (w/v) PEI and 0.1% BSA in water. The filters were rinsed 6 times with one mL of cold wash buffer (50 mM Tris HCl, pH 7.0, 5.0 mM MgCl2, 1.0 mM EGTA and 0.75 mg/mL fatty acid free bovine serum albumin), 30 μL of MicroScint 20 was added to each filter and the radioactivity on the filters determined by scintillation spectroscopy. Nonspecific binding was determined in the presence of 10 μM WIN55212-2.

The target in test [4] is T1, CB2 receptor. Put plainly: hCB2 receptor binding, [3H]CP55940 displacement. Conditions: human cloned CB2 receptor. How it is done:
as §3, §2, §4

Test [5] deals with T2, CB1 receptor. Put plainly: hCB1-mediated stimulation of [35S]GTPγS binding. Type of test: biochemical. Conditions: agonist; read-out: in vitro CB1 receptor agonist potency EC50. How it is done: as §1
Chinese hamster ovary cells (CHO-K1), stably transfected with either hCB1 or hCB2, were washed two times with cold PBS, scraped from 500 cm^2 tissue culture plates, and pelleted by centrifugation at 1000×g for 10 min. The supernatant was discarded and the pellet was resuspended in Tris assay buffer (50 mM Tris HCl, pH 7.8, containing 1.0 mM EGTA, 5.0 mM MgCl2, […], and 0.5 mg/mL aprotinin), homogenized with a Polytron homogenizer (Brinkmann) at a setting of 1 for 20 sec and centrifuged at 38,000×g for 20 min at 4° C. […]
hCB1-Mediated stimulation of [^35S]GTPγS binding was measured in a mixture containing 100-150 pM [^35S]GTPγS, 150 mM NaCl, 45 mM MgCl2, […], 0.4 mM DTT, 1 mM EGTA, 1 mg/mL fatty acid free BSA, 25 μg of membrane protein and agonist in a total volume of 250 μL of buffer A in 96 well Basic Flashplates (Perkin Elmer). After incubation at room temperature for 2 hours the plates were centrifuged at 800×g at 4° C. for 5 min and the radioactivity bound to the membranes was determined by scintillation spectrometry using the Topcount (Perkin Elmer).

Consider five compounds from US7297796B2, “Sulfamoyl benzamide derivatives and methods of their use” (Adolor Corporation, priority 2004, dated 2007).

Where only a bound is given, the exact number is not on record here.

T2 sequence (P21554 whole entry): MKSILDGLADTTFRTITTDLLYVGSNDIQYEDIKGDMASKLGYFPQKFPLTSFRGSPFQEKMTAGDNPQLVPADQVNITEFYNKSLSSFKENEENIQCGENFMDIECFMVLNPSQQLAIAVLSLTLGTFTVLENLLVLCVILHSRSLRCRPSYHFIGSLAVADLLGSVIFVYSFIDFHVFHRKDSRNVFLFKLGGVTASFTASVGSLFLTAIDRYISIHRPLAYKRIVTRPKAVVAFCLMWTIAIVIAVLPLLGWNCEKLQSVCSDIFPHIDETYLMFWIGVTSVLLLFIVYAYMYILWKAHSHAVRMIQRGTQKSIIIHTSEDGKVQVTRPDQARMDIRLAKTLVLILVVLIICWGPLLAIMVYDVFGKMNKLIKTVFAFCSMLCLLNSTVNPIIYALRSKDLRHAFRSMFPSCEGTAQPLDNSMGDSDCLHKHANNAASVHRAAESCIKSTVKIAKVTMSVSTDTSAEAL

Turning to `Cc1ccc(C(=O)N[C@H]2C(C)(C)[C@@H]3CC[C@@]2(C)C3)cc1S(=O)(=O)N1CCOCC1` [Compound 26, 4-Methyl-3-(morpholine-4-sul-fonyl)-N,S-(1,3,3-tri-methyl-bicyclo[2.2.1]-hept-2-yl)-benzamide], the “Anti-Allodynia [%]” value in test [1] (1 mg/kg) was determined as 53.5 ± 14.2%; in test [1] (3 mg/kg), 61.7 ± 13.6 %; in test [1] (6 mg/kg), 61.1 ± 12.6 %; in test [1] (10 mg/kg), 44.0 ± 16.2%. The concentration for a half-maximal effect (EC50) (usually the concentration needed to bring the measured effect to its halfway point) was found to be 7.8 nM at CB2 receptor [2] and 2000 nM on CB1 receptor [5]. Also, the inhibition constant (Ki) (commonly a dissociation constant, usually derived from enzyme kinetics or from competition with a known ligand) at CB1 receptor [3] came to 121 nM; on CB2 receptor [4], 3.7 nM.

In the case of `CN1CCCCC1Cn1cc(C(=O)c2cc([N+](=O)[O-])ccc2I)c2ccccc21` (centres unmarked) [AM1241, reference compound], the “Anti-Allodynia [%]” value in test [1] (3 mg/kg) is on record as 27.5 ± 10.1%.

As for `Cc1c(C(=O)c2cccc3ccccc23)c2cccc3c2n1[C@H](CN1CCOCC1)CO3` [WIN, WIN 55,212-2, reference compound], in test [1] (2.5 mg/kg), the “Anti-Allodynia [%]” value is given as 75.2 ± 13.8%.

Consider `CN(Cc1ccccc1)S(=O)(=O)c1cc(C(=O)NC2C(C)(C)[C@@H]3CC[C@]2(C)C3)ccc1Br` (stereo in doubt) [Compound 23, 3-(Benzyl-methyl-sulfamoyl)-4-bromo-N-(1,3,3-tri-methyl-bicyclo[2.2.1]hept-2-yl)-benzamide], for which, on CB2 receptor [2] (antagonist, read-out: in vitro CB2 receptor antagonist potency IC50), the IC50 – broadly, the point on the concentration scale where inhibition reaches its midpoint – was found to be 13.7 nM. In addition, the results for the Ki on CB1 receptor [3] and on CB2 receptor [4] were greater than 1000 nM and 10.3 nM, respectively.

For `CC1(C)[C@@H]2CC[C@@](C)(C2)[C@@H]1NC(=O)c1ccc(Br)c(S(=O)(=O)N2CCCCC2)c1` [Compound 17, 4-Bromo-3-(piperidine-1-sul-fonyl)-N-(1,3,3-tri-methylbicyclo[2.2.1]hept-2-yl)-benzamide], the values for the EC50 at CB2 receptor [2] and at CB1 receptor [5] were 18.2 nM and 326 nM, respectively. The Ki on CB1 receptor [3] stood at 93 nM; at CB2 receptor [4], 13.1 nM.
